Experimental data reported in paper PMC12223310, “Mining the heparinome for cryptic antimicrobial peptides that selectively kill Gram-negative bacteria” (Molecular Systems Biology, 2025).
Converted amounts (≈) assume the structure as drawn. Square brackets hold non-standard residues; d marks the D form. Peptide text beside a SMILES is read from it.

Columns and labels:
[1] = assay type: in vitro ADME
Procedure: 500 µL of 1 mM peptide stock in MiliQ water were mixed with 500 µL of human serum (Sigma-Aldrich, St. Louis, MO, USA). The mixture was incubated at 37 °C with shaking, and at various time points aliquots were taken and proteolysis was stopped with cold acetonitrile (80% in MiliQ water). The samples were chilled at 4 °C for 10 min to precipitate serum proteins, and centrifuged at 13,000 rpm at 4 °C for 15 min. The supernatant was collected and analyzed by LC and LC-MS with a –60% linear gradient of solvent B (0.036%TFA in ACN) into A (0.045% TFA in H2O) over 15 min at 1 mL/min flow rate. Unaltered peptide was determined by peak integration, expressed as the percent of the amount at 0 min, and data were fitted to a one-phase exponential decay model using GraphPad Prism 8.01 to estimate half-life time (t1/2). The results are the average of three independent experiments.

Staphylococcus aureus = assay type: cell-based, Staphylococcus aureus ATCC 12600
Procedure: (§1) Antimicrobial activities were determined by the microtiter broth dilution method recommended by the National Committee of Laboratory Safety and Standards (NCLSS), adapted for AMPs (Wiegand et al, [2008]). Briefly, overnight bacterial cell cultures were brought to an exponential growth state (OD600 = 0.4) in MH broth and diluted to a final concentration of 5 × 10^5 CFU/mL. In all, 1:2 peptide serial dilutions were prepared in 96-well polypropylene plates (Greiner, Frickenhausen, Germany), in MH medium containing 0.2% (w/v) of bovine serum albumin (BSA) and 0.02% glacial acetic acid. […] The lowest concentration with no colonies was taken as MBC. The results are the average of three independent studies.

Acinetobacter baumannii = assay type: cell-based, Acinetobacter baumannii ATCC 15308
Procedure: as §1

Escherichia coli = assay type: cell-based, Escherichia coli BW25113
Procedure: as §1

in vitro = assay type: cell-based; conditions: human, MRC-5 cells
Procedure: Toxicity in MRC-5 and HepG2 cells was tested by the MTT assay, as described (Bello-Madruga et al, [2023]). Cell lines were maintained in Eagle’s minimum essential medium (MEMα) supplemented with 10% fetal bovine serum (FBS). Cells were cultured in 75-cm^2 flasks and then transferred to polystyrene 96-well plates, at 3 × 10^4 cells per well, and incubated overnight for attachment to the well surface. Then culture media was removed and 1:2 peptide serial dilutions in MEMα were added to each well and later incubated for 4 h. After incubation, peptides were removed and 100 μL of 0.5 mg/mL MTT staining solution in MEMα supplemented with 10% FBS was added to cells and incubated for 1.5 h at 37 °C. Formazan crystals in living cells were detected after disruption with 200 μL dimethyl sulfoxide and then absorbance was measured at 570 nm in a Tecan Spark instrument (Tecan, Männedorf, Switzerland). The results are the average of three independent studies.

horse erythrocytes = assay type: cell-based
Procedure: Peptide toxicity was tested on horse erythrocytes (Sandín et al, [2021]). Horse defibrinated blood was washed three times in phosphate buffer saline (PBS) pH 7.2 by centrifugation at 3× 3000 rpm for 10 min, to remove excess hemoglobin in the supernatant and then diluted tenfold in PBS. Next, 50 μL of erythrocytes were added to a 1.5 mL polypropylene tube and incubated with 50 μL of a 1:2 peptide serial dilution in PBS. An erythrocyte disruption (ED) control was prepared by adding 50 μL of 0.1% TritonX-100 in PBS instead of the peptides and an intact erythrocyte (IC) control by adding 50 μL of PBS alone. All samples and controls were incubated for 2 h at 37 °C. Samples were centrifuged at 3000 rpm for 3 min, and the supernatants were transferred to a polystyrene 96-well plate and inspected for ED by reading the absorbance at 540 nm in a Tecan Spark instrument (Tecan, Männedorf, Switzerland). The results are the average of three independent studies. The hemolysis percentage was calculated as: Hemolysis%=Sample−IC/ED−IC×100

Listeria monocytogenes = assay type: cell-based, Listeria monocytogenes ATCC 19112
Procedure: as §1

[2] = tested on: Pseudomonas sp (Pseudomonas aeruginosa); assay type: cell-based, Pseudomonas aeruginosa ATCC 15915
Procedure: as §1

SMILES: CC(C)C[C@@H](NC(=O)[C@@H](CC(N)=O)NC(=O)[C@H](N)Cc1c[nH]cn1)C(=O)N[C@H](Cc1ccccc1)C(=O)N[C@H](CCCNC(=N)N)C(=O)N[C@H](CCCCN)C(=O)N[C@H](CC(C)C)C(=O)N[C@@H](C(=O)N[C@H](Cc1c[nH]cn1)C(=O)N[C@H](CCCNC(=N)N)C(=O)N[C@H](CC(C)C)C(=O)N[C@H](Cc1ccccc1)C(=O)N[C@H](CCCNC(=N)N)C(=O)N[C@H](CCCNC(=N)N)C(=O)N[C@H](CC(N)=O)C(=O)N[C@H](Cc1ccccc1)C(=O)NCC(=O)N[C@H](Cc1ccc(O)cc1)C(=O)N[C@@H](C(=O)N[C@H](CC(C)C)C(=O)N[C@H](CCCNC(=N)N)C(=O)N[C@H](CO)C(=O)N[C@@H](C(N)=O)C(C)C)[C@H](C)O)[C@H](C)O [dHBP-5] (H-[dH][dN][dL][dF][dR][dK][dL][dT][dH][dR][dL][dF][dR][dR][dN][dF]G[dY][dT][dL][dR][dS][dV]-NH2)
- half-life in human serum [1]: exceeding 6 hours
- MIC S. aureus (Staphylococcus aureus): 0.8 µM (≈ 2.35 µg/mL)
- MIC A. baumannii (Acinetobacter baumannii): 0.2 µM (≈ 0.586 µg/mL)
- MIC E. coli (Escherichia coli): 0.1 µM (≈ 0.293 µg/mL)
- CC50 at 4 h (in vitro): 30 ± 1 µM
- Hemolysis (250 µM peptide) (horse erythrocytes): 29 ± 1
- MIC L. monocytogenes (Listeria monocytogenes): 0.4 µM (≈ 1.17 µg/mL)
- MIC Pseudomonas sp [2]: 0.2 µM (≈ 0.586 µg/mL)
